Test results published in patent US6610471B1, “Methods and compositions to investigate infection by hepatitis B virus and agents to prevent and treat the infection” (priority 1998, dated 2003).

Assays:
Type in all cases: cell-based, hepatitis B virus
HBV [1] = assay: Extracellular HBV DNA secreted by HBV baculovirus infected HepG2 cells (Southern blot, densitometry); conditions: 0.2 μM 3TC, 10 day treatment
HBV [2] = assay: Intracellular HBV replicative intermediates in HBV baculovirus infected HepG2 cells (Southern blot, densitometry); conditions: 50 pfu/cell
Procedure: (§1) On the indicated days (3, 6, and 9 days of drug treatment) HBV replication in HepG2 cultures was assessed by examining extracellular HBV DNA and intracellular replicative intermediates.
(T). […] Relaxed circular (RC) and double-stranded (DS) forms of HBV DNA are indicated. […] (T). […] Replicative intermediates were analyzed by Southern blotting. Double-stranded (DS) and single-stranded (SS) forms of HBV genomic DNA are indicated.
(§2) HepG2 cells were seeded at approximately 20% to 40% confluency and then were grown for 16 to 24 hours before infection. On the day of infection, duplicate plates of cells were trypsinized, and viable cell number was determined with a hemocytometer using Trypan blue exclusion. Average cell counts were calculated and used to determine the volume of high-titer viral stock necessary to infect cells at the indicated moi. Baculovirus was diluted into MEM-FBS to achieve the appropriate moi using volumes of 1.0 and 0.25 mL to infect 100-mm and 35-mm dishes, respectively. Baculovirus was adsorbed to HepG2 cells for one hour at 37° C. with gentle rocking every 15 minutes to ensure that the inoculum was evenly distributed. The inoculum was then aspirated and HepG2 cells were washed two times with phosphate-buffered saline and refed MEM-FBS.
HBV core particles were isolated from the cytoplasmic fraction of HepG2 cells lysed in 0.5% Np40. Cytoplasmic extracts were adjusted to 10 mmol/L MgCl2 and unprotected DNA was removed by an incubation with 500 μg/mL DNasel for 1 hour at 37° C. Samples were then adjusted to 50 mmol/L ethylenediaminetetraacetic acid, 50 mmol/L Tris, 0.5% sodium dodecyl sulfate, and digested with 500 μg/mL. Proteinase K for 1.5 hours at 37° C. Following sequential phenol and chloroform extractions, nucleic acids were recovered by ethanol precipitation. Nucleic acids were resuspended in 50 μL TE (10 mmol/L Tris, 1 mmol/L ethylenediaminetetraacetic acid), normalized by OD260, and digested with 100 μg/mL RNase (Boehringer Mannheim, Indianapolis, Ind.) for one hour at 37° C. before analysis by electrophoresis and Southern blotting. A Molecular Dynamics (Sunnyvale, Calif.) 100A laser densitometer equipped with Quantity One software (Protein Databases Inc., Huntington Station, N.Y.) was used to analyze suitable exposures of Southern blots.
(§3) 3TC was a gift of BioChem Therapeutic Inc. (Laval, Quebec, Canada). […] Medium containing 3TC was prepared daily as needed using fresh aliquots of 3TC.

HBV [3] = assay: Non protein-associated RC and CCC HBV DNA in HBV baculovirus infected HepG2 cells (Southern blot); conditions: for non protein-associated RC HBV DNA, % Untreated Control: 50 pfu/cell
Procedure: as §1
(T). […] Relaxed circular (RC) and covalently closed circular (CCC) HBV DNA is indicated. […] A conclusion from these studies is that the HBV baculovirus-HepG2 system can be used to complement other in vitro model systems currently used for testing antiviral compounds.
as §2
Nonprotein-bound circular HBV genomes were extracted from HepG2 cells after infection by a high salt extraction of low molecular weight DNA followed by a phenol and chloroform extraction. Nucleic acids were resuspended in 50 μL of water and normalized by OD260. All samples were treated with 100 μg/mL RNase and 30 U of Plasmid-Safe ATP-Dependent DNase (Epicenter Technologies, Madison, Wis.). After a two-hour incubation at 37° C., Plasmid-Safe DNase was heat inactivated at 65° C. according to the manufacturer's instructions. Each sample was separated into two aliquots and one aliquot was digested with Xhol for one hour at 37° C. Samples were analyzed by electrophoresis and Southern blotting.
as §3

[4] = 0.02 μM 3TC, P (from 16 h prior to infection), day 4 p.i. (3 days treatment)
[5] = 0.02 μM 3TC, P (from 16 h prior to infection), day 7 p.i. (6 days treatment)
[6] = 0.02 μM 3TC, T (from 24 h p.i.), day 4 p.i. (3 days treatment)
[7] = 0.02 μM 3TC, T (from 24 h p.i.), day 7 p.i. (6 days treatment)
[8] = 0.2 μM 3TC, P (from 16 h prior to infection), day 4 p.i. (3 days treatment)
[9] = 0.2 μM 3TC, P (from 16 h prior to infection), day 7 p.i. (6 days treatment)
[10] = 0.2 μM 3TC, T (from 24 h p.i.), day 4 p.i. (3 days treatment)
[11] = 0.2 μM 3TC, T (from 24 h p.i.), day 7 p.i. (6 days treatment)
[12] = 2.0 μM 3TC, P (from 16 h prior to infection), day 4 p.i. (3 days treatment)
[13] = 2.0 μM 3TC, P (from 16 h prior to infection), day 7 p.i. (6 days treatment)
[14] = 2.0 μM 3TC, T (from 24 h p.i.), day 4 p.i. (3 days treatment)
[15] = 2.0 μM 3TC, T (from 24 h p.i.), day 7 p.i. (6 days treatment)

SMILES: Nc1ccn([C@@H]2CS[C@H](CO)O2)c(=O)n1 [3TC, (−)-2′-dideoxy-3′-thiacytidine]
- reduction in extracellular DNA (HBV [1]): ~98%
- intracellular HBV replicative intermediates, % Untreated Control (HBV [2]; [4]): 82.5 % Untreated Control
- intracellular HBV replicative intermediates, % Untreated Control (HBV [2]; [5]): 100 % Untreated Control
- intracellular HBV replicative intermediates, % Untreated Control (HBV [2]; 0.02 μM 3TC, P (from 16 h prior to infection), day 10 p.i. (9 days treatment)): 68.2 % Untreated Control
- intracellular HBV replicative intermediates, % Untreated Control (HBV [2]; [6]): 57.4 % Untreated Control
- intracellular HBV replicative intermediates, % Untreated Control (HBV [2]; [7]): 100 % Untreated Control
- intracellular HBV replicative intermediates, % Untreated Control (HBV [2]; 0.02 μM 3TC, T (from 24 h p.i.), day 10 p.i. (9 days treatment)): 59.6 % Untreated Control
- intracellular HBV replicative intermediates, % Untreated Control (HBV [2]; [8]): 41.7 % Untreated Control
- intracellular HBV replicative intermediates, % Untreated Control (HBV [2]; [9]): 20.0 % Untreated Control
- intracellular HBV replicative intermediates, % Untreated Control (HBV [2]; 0.2 μM 3TC, P (from 16 h prior to infection), day 10 p.i. (9 days treatment)): 6.5 % Untreated Control
- intracellular HBV replicative intermediates, % Untreated Control (HBV [2]; [10]): 35.0 % Untreated Control
- intracellular HBV replicative intermediates, % Untreated Control (HBV [2]; [11]): 16.7 % Untreated Control
- intracellular HBV replicative intermediates, % Untreated Control (HBV [2]; 0.2 μM 3TC, T (from 24 h p.i.), day 10 p.i. (9 days treatment)): 6.7 % Untreated Control
- intracellular HBV replicative intermediates, % Untreated Control (HBV [2]; [12]): 8.2 % Untreated Control
- intracellular HBV replicative intermediates, % Untreated Control (HBV [2]; [13]): 7.1 % Untreated Control
- intracellular HBV replicative intermediates, % Untreated Control (HBV [2]; 2.0 μM 3TC, P (from 16 h prior to infection), day 10 p.i. (9 days treatment)): 1.3 % Untreated Control
- intracellular HBV replicative intermediates, % Untreated Control (HBV [2]; [14]): 12.1 % Untreated Control
- intracellular HBV replicative intermediates, % Untreated Control (HBV [2]; [15]): 8.5 % Untreated Control
- intracellular HBV replicative intermediates, % Untreated Control (HBV [2]; 2.0 μM 3TC, T (from 24 h p.i.), day 10 p.i. (9 days treatment)): 2.1 % Untreated Control
- non protein-associated RC HBV DNA, % Untreated Control (HBV [3]; [4]): 60.9 % Untreated Control
- non protein-associated RC HBV DNA, % Untreated Control (HBV [3]; [5]): 45.2 % Untreated Control
- non protein-associated RC HBV DNA, % Untreated Control (HBV [3]; [6]): 48.8 % Untreated Control
- non protein-associated RC HBV DNA, % Untreated Control (HBV [3]; [7]): 40.2 % Untreated Control
- non protein-associated RC HBV DNA, % Untreated Control (HBV [3]; [8]): 8.6 % Untreated Control
- non protein-associated RC HBV DNA, % Untreated Control (HBV [3]; [9]): 10.5 % Untreated Control
- non protein-associated RC HBV DNA, % Untreated Control (HBV [3]; [10]): 17.3 % Untreated Control
- non protein-associated RC HBV DNA, % Untreated Control (HBV [3]; [11]): 10.9 % Untreated Control
- non protein-associated RC HBV DNA, % Untreated Control (HBV [3]; [12]): 3.2 % Untreated Control
- non protein-associated RC HBV DNA, % Untreated Control (HBV [3]; [13]): 5.6 % Untreated Control
- non protein-associated RC HBV DNA, % Untreated Control (HBV [3]; [14]): 6.8 % Untreated Control
- non protein-associated RC HBV DNA, % Untreated Control (HBV [3]; [15]): 6.7 % Untreated Control
- inhibition at 2 µM (HBV [3]; Hepatitis B virus, HepG2, read-out: inhibition of non protein-associated RC HBV DNA production): > 90%
